Measurements published in US12516039B2, “N-linked isoquinoline amides as LRRK2 inhibitors, pharmaceutical compositions, and uses thereof” (Merck Sharp & Dohme LLC, priority 2020, dated 2026).

What follows are compounds tested against T1, GST-tagged truncated human mutant G2019S LRRK2 (Homo sapiens, UniProt Q5S007, G2019S) (assay: LRRK2 G2019S Km ATP LanthaScreen assay). Conditions: 134 μM ATP (Km ATP), LRRKtide substrate, mean of several tests.
T1 construct: GST-tagged truncated human mutant G2019S LRRK2; purchased Life Technologies Corporation (Carlsbad, CA)
T1 sequence (Q5S007 970-2527 G2019S limits assumed): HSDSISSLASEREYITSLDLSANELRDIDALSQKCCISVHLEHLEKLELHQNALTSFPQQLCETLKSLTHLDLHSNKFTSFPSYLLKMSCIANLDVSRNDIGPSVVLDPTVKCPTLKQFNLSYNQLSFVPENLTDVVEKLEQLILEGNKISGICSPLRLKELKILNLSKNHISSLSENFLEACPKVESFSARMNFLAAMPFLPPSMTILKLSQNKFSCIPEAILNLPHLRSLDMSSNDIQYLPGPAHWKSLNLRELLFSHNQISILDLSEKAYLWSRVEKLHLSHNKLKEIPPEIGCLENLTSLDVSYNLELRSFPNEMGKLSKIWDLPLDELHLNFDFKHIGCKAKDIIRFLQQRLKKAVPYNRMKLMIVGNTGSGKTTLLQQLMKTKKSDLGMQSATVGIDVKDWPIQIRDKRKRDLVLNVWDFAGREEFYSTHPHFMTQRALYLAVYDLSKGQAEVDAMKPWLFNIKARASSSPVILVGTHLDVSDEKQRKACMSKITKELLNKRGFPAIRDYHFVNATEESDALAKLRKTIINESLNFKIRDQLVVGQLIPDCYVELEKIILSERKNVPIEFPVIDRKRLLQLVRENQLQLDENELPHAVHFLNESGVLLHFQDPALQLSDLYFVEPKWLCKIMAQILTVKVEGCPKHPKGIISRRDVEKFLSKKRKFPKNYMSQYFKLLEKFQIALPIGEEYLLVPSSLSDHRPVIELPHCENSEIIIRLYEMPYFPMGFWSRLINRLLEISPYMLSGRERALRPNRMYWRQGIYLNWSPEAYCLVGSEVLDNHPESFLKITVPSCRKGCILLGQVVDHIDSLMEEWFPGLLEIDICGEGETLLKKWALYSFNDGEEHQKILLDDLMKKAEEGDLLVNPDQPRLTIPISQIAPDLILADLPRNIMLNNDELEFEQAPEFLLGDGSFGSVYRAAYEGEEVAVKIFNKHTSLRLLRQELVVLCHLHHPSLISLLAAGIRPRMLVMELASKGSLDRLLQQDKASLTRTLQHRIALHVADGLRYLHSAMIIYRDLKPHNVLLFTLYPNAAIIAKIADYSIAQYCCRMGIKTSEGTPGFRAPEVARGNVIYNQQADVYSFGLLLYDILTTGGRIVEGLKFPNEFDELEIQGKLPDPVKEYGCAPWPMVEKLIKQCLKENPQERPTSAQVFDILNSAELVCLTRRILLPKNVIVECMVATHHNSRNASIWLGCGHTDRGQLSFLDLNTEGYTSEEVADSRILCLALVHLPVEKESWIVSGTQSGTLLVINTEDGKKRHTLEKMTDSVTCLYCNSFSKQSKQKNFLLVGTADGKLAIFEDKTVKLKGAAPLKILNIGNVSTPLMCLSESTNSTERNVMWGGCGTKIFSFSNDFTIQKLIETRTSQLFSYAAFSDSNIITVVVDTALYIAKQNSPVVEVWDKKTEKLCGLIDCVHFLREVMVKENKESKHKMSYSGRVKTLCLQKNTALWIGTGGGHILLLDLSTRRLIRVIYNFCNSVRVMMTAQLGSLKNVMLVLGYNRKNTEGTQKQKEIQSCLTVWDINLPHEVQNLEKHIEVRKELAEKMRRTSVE
Type: biochemical
How it was run: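 IC50 values are means of repeat runs, fitted with a 4-parameter logistic to the 520/495 nm TR-FRET ratio from a Tb-labeled anti-phospho-LRRKtide antibody added with EDTA. Reactions ran 90 min at room temperature at Km ATP (134 μM) with fluorescein-LRRKtide, after 15-min compound preincubation with truncated GST-tagged G2019S LRRK2.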

Compound	LRRK2 pIC50
CC1(C#N)CCN(c2cc3cc(NC(=O)C4CC45CCOCC5)ncc3cc2Cl)CC1 (centres unmarked) [Ex-4.8]	6.68
(1R,2R,3R, or 1R,2S,3R, or 1S,2R,3S, or 1S,2S,3S)-N-[6-[4-((3R,4R or 3S,4S)-4-fluoro-3-methyl-tetrahydrofuran-3-yl)piperazin-1-yl]-7-methyl-3-isoquinolyl]-2-methyl-3-(1-methylpyrazol-4-yl)cyclopropanecarboxamide [Ex-10.58]	10.09

Same assay, conditions: 134 μM ATP (Km ATP), LRRKtide substrate, mean of several tests, read-out: LRRK2 pIC50 (converted)

Compound	IC50 [nM]
CC1(N2CCN(c3cc4cc(NC(=O)C5CC5C(F)F)ncc4cc3Cl)CC2)COCC1F (single isomer, unassigned) [Ex-10.77, (1R,2R or 1S,2S)-N-[7-chloro-6-[4-((3R,4R or 3S,4S)-4-fluoro-3-methyl-tetrahydrofuran-3-yl)piperazin-1-yl]-3-isoquinolyl]-2-(difluoromethyl)cyclopropanecarboxamide]	0.0813
Cc1cc2cnc(NC(=O)C3CC34CCOC4)cc2cc1N1CCN(C2(C)COCC2O)CC1 (single isomer, unassigned) [Ex-6.5, (1R, 3S or 1S,3R, or 1R,3S, or 1S,3S)-N-(6-(4-((3R, 4R or 3S,4S)-4-hydroxy-3-methyltetrahydrofuran-3-yl)piperazin-1-yl)-7-methylisoquinolin-3-yl)-5-oxaspiro[2.4]heptane-1-carboxamide]	1.05
Cc1cc2cnc(NC(=O)C3CCOC(C)(C)C3)cc2cc1N1CCN(C2(C)CCOC2)CC1 (single isomer, unassigned) [Ex-10.44, (4R or 4S)-2,2-dimethyl-N-[7-methyl-6-[4-((R or S)-3-methyltetrahydrofuran-3-yl)piperazin-1-yl]-3-isoquinolyl]tetrahydropyran-4-carboxamide]	209
Cc1cc2cnc(NC(=O)C3CCOC(C)(C)C3)cc2cc1N1CCN(C2(C)CCOC2)CC1 (single isomer, unassigned) [Ex-10.43, (4R or 4S)-2,2-dimethyl-N-[7-methyl-6-[4-((R or S)-3-methyltetrahydrofuran-3-yl)piperazin-1-yl]-3-isoquinolyl]tetrahydropyran-4-carboxamide]	19.5
CCOC1CC1C(=O)Nc1cc2cc(N3CCN(C4(C)COCC4O)CC3)c(Cl)cc2cn1 (single isomer, unassigned) [Ex-10.12]	0.0832
CC1(N2CCN(c3cc4cc(NC(=O)C5CC56CCC(F)(F)CC6)ncc4cc3Cl)CC2)COCC1O (single isomer, unassigned) [Ex-1.20, (1R or 1S)-N-(7-chloro-6-(4-((3R,4R or 3S,4S)-4-hydroxy-3-methyltetrahydrofuran-3-yl)piperazin-1-yl)isoquinolin-3-yl)-6,6-difluorospiro[2.5]octane-1-carboxamide]	63.1
CCC1C(C(=O)Nc2cc3cc(N4CCN(C5(C)COCC5F)CC4)c(Cl)cc3cn2)C1c1ccn(C)n1 (single isomer, unassigned) [Ex-10.50, (1R,2R,3R, 1R,2S,3R, or 1S,2R,3S, or 1S,2S,3S)-N-[7-chloro-6-[4-((3R,4R or 3S,4S)-4-fluoro-3-methyl-tetrahydrofuran-3-yl)piperazin-1-yl]-3-isoquinolyl]-2-ethyl-3-(1-methylpyrazol-3-yl)cyclopropanecarboxamide]	0.0813
Cc1cc2cnc(NC(=O)C3CC34CCOC4)cc2cc1N1CCN(C2(C)COCC2O)CC1 (single isomer, unassigned) [Ex-6.3, (1R, 3S or 1S,3R, or 1R,3S, or 1S,3S)-N-(6-(4-((3R, 4R or 3S,4S)-4-hydroxy-3-methyltetrahydrofuran-3-yl)piperazin-1-yl)-7-methylisoquinolin-3-yl)-5-oxaspiro[2.4]heptane-1-carboxamide]	0.832
Cc1cc2cnc(NC(=O)C3CC34CCOCC4)cc2cc1N1CCN(C2(C)COCC2O)C[C@@H]1C (single isomer, unassigned) [Ex-15.1, (R or S)-N-(6-((2R or 2S)-4-(4-(3R,4R or 3S,4S)-hydroxy-3-methyltetrahydrofuran-3-yl)-2-methylpiperazin-1-yl)-7-methylisoquinolin-3-yl)-6-oxaspiro[2.5]octane-1-carboxamide]	4.68
